# Data reported in US11231416B2, “Virus-like particle (VLP) based small molecule-protein interaction trap” (VIB VZW, priority 2015, dated 2022).
# Key:
# Experiment in all cases: Viral trapping in VLPs, MS analysis
# Format in all cases: binding
# [1] = biological target: T1, CGN1 (Bos taurus, UniProt P23805); conditions: all proteins (incl. low confidence identifications)
# T1 construct: host or cells: VLPs from HEK293T supernatant
# Protocol: (§1) For mass spectrometry, 10^7 HEK293T cells were seeded in five flasks (75 cm^2) and transfected the next day with a total of 15 μg DNA per flask using polyethylene imine reagent. The following DNA quantities were used per flask: 7.5 μg of GAG-eDHFR, 5.4 μg of mock vector and 2.1 μg of a 50/50 mix of pMD2.G and pcDNA3-FLAG-VSV-G. The small molecule fusions were added immediately after transfection to the producing cells at a concentration of 1 μM. The same dilution of dimethyl sulfoxide (DMSO) was added in control experiments to control the effect of this chemical on the cells. The cellular supernatant was harvested after 32 hours and was centrifuged for 3 minutes at 450×g to remove cellular debris. The cleared supernatant was then filtered using 0.45 μm filters (Millipore). A total of 100 μl MyOne™ Streptavidin T1 beads (Life Technologies) pre-loaded with 10 μg ANTI-FLAG® BioM2-Biotin antibody (Sigma-Aldrich®) was used to bind the tagged particles. Particles were allowed to bind for 2 hours by end-over-end rotation. The total supernatant was processed in three consecutive binding steps. Bead-particle complexes were washed once with washing buffer (TWB: 20 mM Tris-HCl pH 7.5, 150 mM NaCl) and were then eluted with FLAG peptide (200 μg/ml in TWB) and lysed by addition of SDS to a final concentration of 0.1%. After 5 minutes, SDS was removed using HiPPR Detergent Removal Spin Columns (Pierce, Thermo Scientific) followed by boiling and overnight digestion with 0.5 μg sequence-grade trypsin (Promega). After acidification (0.1% TFA final), the peptides were separated by nano-LC and directly analyzed with a Q Exactive instrument (Thermo Scientific).
# (§2) For tamoxifen, four biological repeats were performed where the cells were treated with MTX-PEG6-tamoxifen after transfection. The obtained protein lists after viral trapping and MS analysis were challenged with protein lists coming from the four DMSO controls, the 19 control experiments and the lists obtained for the MTX-PEG6-simvastatin and MTX-PEG6-reversine (see below) for a total of 30 samples.
# [2] = biological target: T2, DCAKD (Homo sapiens, UniProt Q8WVC6); conditions: all proteins (incl. low confidence identifications)
# T2 construct: endogenous in cells; host or cells: HEK293T
# Protocol: as §1, §2
# [3] = biological target: T3, DNAJB12 (Homo sapiens, UniProt Q9NXW2); conditions: all proteins (incl. low confidence identifications)
# T3 construct: endogenous in cells; host or cells: HEK293T
# Protocol: as §1, §2
# [4] = biological target: T4, ENPP4 (Homo sapiens, UniProt Q9Y6X5); conditions: all proteins (incl. low confidence identifications)
# T4 construct: endogenous in cells; host or cells: HEK293T
# Protocol: as §1, §2
# [5] = biological target: T5, ESYT1 (Homo sapiens, UniProt Q9BSJ8)
# T5 construct: endogenous in cells; host or cells: HEK293T
# Protocol: as §1, §2
# [6] = biological target: T6, GRAMD4 (Homo sapiens, UniProt Q6IC98); conditions: all proteins (incl. low confidence identifications)
# T6 construct: endogenous in cells; host or cells: HEK293T
# Protocol: as §1, §2
# [7] = biological target: T7, HSD17B4 (Homo sapiens, UniProt P51659)
# T7 construct: endogenous in cells; host or cells: HEK293T
# T7 sequence (P51659 1-736): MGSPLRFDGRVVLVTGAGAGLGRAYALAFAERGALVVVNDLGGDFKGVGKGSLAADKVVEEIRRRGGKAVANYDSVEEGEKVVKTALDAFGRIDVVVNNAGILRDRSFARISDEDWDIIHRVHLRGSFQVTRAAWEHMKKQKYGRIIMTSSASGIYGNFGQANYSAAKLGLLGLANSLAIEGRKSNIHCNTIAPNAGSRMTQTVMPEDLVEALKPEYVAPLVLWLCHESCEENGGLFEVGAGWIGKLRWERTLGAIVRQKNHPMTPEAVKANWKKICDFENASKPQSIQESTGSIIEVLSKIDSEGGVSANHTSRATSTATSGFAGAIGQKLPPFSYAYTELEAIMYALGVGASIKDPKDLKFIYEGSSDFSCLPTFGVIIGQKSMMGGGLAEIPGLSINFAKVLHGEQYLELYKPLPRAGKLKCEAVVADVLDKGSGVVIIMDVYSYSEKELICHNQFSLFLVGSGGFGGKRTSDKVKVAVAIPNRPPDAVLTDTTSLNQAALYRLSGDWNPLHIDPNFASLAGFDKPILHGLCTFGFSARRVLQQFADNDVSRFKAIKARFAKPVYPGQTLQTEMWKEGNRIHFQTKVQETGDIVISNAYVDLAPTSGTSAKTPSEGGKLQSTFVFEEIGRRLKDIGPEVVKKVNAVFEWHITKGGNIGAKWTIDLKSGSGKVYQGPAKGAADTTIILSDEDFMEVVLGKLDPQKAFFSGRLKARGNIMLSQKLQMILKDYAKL
# Protocol: as §1, §2
# [8] = biological target: T8, ITPRIPL1 (Homo sapiens, UniProt Q6GPH6); conditions: all proteins (incl. low confidence identifications)
# T8 construct: endogenous in cells; host or cells: HEK293T
# Protocol: as §1, §2
# [9] = biological target: T9, LRRC59 (Homo sapiens, UniProt Q96AG4); conditions: all proteins (incl. low confidence identifications)
# T9 construct: endogenous in cells; host or cells: HEK293T
# Protocol: as §1, §2
# [10] = biological target: T10, MDH2 (Homo sapiens, UniProt P40926)
# T10 construct: endogenous in cells; host or cells: HEK293T
# Protocol: as §1, §2
# [11] = biological target: T11, NCS1 (Homo sapiens, UniProt P62166); conditions: all proteins (incl. low confidence identifications)
# T11 construct: endogenous in cells; host or cells: HEK293T
# Protocol: as §1, §2
# [12] = biological target: T12, PTPLAD1 (Homo sapiens, UniProt Q9P035); conditions: all proteins (incl. low confidence identifications)
# T12 construct: endogenous in cells; host or cells: HEK293T
# Protocol: as §1, §2
# [13] = biological target: T13, REEP4 (Homo sapiens, UniProt Q9H6H4)
# T13 construct: endogenous in cells; host or cells: HEK293T
# Protocol: as §1, §2
# [14] = biological target: T14, RNF5 (Homo sapiens, UniProt Q99942); conditions: all proteins (incl. low confidence identifications)
# T14 construct: endogenous in cells; host or cells: HEK293T
# Protocol: as §1, §2
# [15] = biological target: T15, RTN3 (Homo sapiens, UniProt O95197); conditions: all proteins (incl. low confidence identifications)
# T15 construct: endogenous in cells; host or cells: HEK293T
# Protocol: as §1, §2
# [16] = biological target: T16, RTN4 (Homo sapiens, UniProt Q9NQC3)
# T16 construct: endogenous in cells; host or cells: HEK293T
# Protocol: as §1, §2
# [17] = biological target: T17, SEC61B (Homo sapiens, UniProt P60468); conditions: all proteins (incl. low confidence identifications)
# T17 construct: endogenous in cells; host or cells: HEK293T
# Protocol: as §1, §2
# [18] = biological target: T18, SREBF2 (Homo sapiens, UniProt Q12772); conditions: all proteins (incl. low confidence identifications)
# T18 construct: endogenous in cells; host or cells: HEK293T
# Protocol: as §1, §2
# [19] = biological target: T19, SSNA1 (Homo sapiens, UniProt O43805)
# T19 construct: endogenous in cells; host or cells: HEK293T
# Protocol: as §1, §2
# [20] = biological target: T20, TBL2 (Homo sapiens, UniProt Q9Y4P3)
# T20 construct: endogenous in cells; host or cells: HEK293T
# Protocol: as §1, §2
# [21] = all proteins (incl. low confidence identifications)
# [22] = proteins identified with >1 peptide (high confidence)
# T13 sequence (Q9H6H4 whole entry): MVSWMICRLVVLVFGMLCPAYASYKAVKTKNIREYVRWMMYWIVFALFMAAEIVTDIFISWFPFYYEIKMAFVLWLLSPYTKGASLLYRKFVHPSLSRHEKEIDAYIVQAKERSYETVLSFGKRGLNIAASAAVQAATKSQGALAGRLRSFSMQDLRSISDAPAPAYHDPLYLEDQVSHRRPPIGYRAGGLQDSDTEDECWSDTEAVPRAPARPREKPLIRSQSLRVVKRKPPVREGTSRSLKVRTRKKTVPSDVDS
# T16 sequence (Q9NQC3 whole entry): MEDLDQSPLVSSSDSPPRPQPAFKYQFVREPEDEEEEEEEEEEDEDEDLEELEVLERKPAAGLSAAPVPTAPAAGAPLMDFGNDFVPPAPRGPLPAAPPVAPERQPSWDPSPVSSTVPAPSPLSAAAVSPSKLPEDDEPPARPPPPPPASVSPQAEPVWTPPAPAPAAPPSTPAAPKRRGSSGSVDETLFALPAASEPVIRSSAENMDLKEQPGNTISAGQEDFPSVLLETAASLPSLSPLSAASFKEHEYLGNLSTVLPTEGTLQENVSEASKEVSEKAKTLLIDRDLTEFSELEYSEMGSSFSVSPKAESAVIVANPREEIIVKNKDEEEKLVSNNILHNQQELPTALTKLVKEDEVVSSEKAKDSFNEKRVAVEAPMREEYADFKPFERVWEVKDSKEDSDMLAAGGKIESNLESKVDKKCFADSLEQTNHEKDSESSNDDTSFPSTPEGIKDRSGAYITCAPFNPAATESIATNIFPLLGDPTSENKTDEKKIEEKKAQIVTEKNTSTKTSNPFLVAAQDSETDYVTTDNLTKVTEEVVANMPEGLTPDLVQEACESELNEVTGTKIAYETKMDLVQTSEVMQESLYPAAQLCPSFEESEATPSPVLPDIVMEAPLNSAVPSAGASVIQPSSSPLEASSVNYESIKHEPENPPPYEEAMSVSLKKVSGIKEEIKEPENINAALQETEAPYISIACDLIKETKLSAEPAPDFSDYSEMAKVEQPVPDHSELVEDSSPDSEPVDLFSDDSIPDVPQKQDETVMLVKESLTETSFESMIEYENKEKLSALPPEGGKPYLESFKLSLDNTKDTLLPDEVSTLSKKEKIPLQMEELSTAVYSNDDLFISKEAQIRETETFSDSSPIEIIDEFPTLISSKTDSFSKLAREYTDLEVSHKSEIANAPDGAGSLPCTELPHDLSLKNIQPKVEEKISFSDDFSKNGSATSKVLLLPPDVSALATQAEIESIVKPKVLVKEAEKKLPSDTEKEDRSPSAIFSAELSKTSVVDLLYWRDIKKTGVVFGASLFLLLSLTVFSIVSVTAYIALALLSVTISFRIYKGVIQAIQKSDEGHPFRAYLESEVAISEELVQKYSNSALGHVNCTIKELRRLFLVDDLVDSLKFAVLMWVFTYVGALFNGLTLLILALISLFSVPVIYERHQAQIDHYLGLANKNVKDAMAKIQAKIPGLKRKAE
# T20 sequence (Q9Y4P3 whole entry): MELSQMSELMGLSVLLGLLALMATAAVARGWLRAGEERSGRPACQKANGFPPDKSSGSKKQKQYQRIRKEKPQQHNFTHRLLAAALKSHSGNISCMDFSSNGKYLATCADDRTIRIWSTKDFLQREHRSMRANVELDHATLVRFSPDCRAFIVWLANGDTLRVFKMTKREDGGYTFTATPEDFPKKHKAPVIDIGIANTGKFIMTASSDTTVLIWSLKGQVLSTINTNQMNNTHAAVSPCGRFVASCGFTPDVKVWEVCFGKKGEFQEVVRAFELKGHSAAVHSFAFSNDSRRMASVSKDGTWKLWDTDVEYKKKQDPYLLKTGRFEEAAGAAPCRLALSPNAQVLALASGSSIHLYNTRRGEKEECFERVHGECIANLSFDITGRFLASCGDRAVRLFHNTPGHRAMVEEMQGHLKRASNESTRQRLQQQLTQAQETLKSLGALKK
# T5 sequence (Q9BSJ8 whole entry): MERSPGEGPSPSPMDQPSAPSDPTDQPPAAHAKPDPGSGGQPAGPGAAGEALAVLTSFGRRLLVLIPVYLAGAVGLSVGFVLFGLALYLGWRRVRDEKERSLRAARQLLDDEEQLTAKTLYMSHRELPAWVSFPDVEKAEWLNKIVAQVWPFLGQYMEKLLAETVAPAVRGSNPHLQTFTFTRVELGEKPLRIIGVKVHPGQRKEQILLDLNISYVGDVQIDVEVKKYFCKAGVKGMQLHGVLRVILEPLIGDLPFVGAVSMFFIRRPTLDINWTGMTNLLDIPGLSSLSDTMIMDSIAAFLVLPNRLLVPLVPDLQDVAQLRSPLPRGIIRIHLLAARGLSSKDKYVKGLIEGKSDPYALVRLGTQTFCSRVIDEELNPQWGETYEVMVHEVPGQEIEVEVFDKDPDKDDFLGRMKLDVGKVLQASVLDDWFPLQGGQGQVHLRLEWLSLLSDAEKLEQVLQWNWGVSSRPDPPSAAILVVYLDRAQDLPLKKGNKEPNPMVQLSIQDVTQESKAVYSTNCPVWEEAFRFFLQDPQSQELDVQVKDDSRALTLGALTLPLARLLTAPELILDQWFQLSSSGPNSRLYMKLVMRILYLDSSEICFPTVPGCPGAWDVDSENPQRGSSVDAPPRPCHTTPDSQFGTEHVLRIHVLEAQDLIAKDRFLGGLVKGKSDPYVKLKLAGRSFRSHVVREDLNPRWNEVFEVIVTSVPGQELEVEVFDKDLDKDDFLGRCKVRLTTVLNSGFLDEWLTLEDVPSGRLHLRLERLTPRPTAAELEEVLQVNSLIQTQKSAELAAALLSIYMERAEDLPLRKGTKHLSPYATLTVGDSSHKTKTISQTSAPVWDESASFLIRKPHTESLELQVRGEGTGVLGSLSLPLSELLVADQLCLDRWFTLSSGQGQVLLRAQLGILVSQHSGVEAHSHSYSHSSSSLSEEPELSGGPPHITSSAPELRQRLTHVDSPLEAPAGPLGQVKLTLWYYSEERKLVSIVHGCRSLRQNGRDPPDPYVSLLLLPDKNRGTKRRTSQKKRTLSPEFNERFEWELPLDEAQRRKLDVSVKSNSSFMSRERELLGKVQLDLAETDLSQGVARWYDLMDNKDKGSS
# T19 sequence (O43805 whole entry): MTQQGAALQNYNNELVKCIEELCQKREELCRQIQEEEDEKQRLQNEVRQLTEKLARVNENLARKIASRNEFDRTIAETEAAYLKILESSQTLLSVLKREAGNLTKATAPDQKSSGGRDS
# T10 sequence (P40926 25-338): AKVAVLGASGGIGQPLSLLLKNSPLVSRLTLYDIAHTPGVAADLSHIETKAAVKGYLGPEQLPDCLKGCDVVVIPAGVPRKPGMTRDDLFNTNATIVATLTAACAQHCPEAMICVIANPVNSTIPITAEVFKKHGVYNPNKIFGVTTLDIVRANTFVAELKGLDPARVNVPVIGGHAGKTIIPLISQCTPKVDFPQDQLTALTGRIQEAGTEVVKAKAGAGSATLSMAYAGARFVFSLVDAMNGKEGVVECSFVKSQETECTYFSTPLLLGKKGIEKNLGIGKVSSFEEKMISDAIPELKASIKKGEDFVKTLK
# T17 sequence (P60468 2-96 limits assumed): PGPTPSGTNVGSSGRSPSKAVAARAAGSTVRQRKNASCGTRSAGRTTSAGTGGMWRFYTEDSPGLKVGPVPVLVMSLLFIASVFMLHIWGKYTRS
# T17 sequence (P61619 whole entry partner): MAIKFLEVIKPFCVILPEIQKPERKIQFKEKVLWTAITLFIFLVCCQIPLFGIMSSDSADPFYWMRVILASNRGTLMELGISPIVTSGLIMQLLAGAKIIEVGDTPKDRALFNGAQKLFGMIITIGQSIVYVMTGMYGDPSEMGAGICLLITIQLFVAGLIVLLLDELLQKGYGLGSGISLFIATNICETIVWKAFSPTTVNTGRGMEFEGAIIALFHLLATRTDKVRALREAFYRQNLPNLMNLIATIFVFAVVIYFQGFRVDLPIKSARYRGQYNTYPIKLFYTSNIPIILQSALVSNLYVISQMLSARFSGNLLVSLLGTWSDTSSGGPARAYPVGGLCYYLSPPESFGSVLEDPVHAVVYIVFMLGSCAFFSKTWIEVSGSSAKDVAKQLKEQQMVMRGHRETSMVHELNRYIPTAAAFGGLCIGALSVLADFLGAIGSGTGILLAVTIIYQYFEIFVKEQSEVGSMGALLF
# T17 sequence (P60059 whole entry partner): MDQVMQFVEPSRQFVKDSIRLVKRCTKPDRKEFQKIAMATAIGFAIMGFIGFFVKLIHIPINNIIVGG
# T11 sequence (P62166 whole entry): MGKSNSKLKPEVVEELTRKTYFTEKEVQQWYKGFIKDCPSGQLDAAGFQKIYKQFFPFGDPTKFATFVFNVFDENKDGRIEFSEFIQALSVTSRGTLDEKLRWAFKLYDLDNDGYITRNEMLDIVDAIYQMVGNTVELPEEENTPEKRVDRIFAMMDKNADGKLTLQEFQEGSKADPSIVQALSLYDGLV
# T6 sequence (Q6IC98 whole entry): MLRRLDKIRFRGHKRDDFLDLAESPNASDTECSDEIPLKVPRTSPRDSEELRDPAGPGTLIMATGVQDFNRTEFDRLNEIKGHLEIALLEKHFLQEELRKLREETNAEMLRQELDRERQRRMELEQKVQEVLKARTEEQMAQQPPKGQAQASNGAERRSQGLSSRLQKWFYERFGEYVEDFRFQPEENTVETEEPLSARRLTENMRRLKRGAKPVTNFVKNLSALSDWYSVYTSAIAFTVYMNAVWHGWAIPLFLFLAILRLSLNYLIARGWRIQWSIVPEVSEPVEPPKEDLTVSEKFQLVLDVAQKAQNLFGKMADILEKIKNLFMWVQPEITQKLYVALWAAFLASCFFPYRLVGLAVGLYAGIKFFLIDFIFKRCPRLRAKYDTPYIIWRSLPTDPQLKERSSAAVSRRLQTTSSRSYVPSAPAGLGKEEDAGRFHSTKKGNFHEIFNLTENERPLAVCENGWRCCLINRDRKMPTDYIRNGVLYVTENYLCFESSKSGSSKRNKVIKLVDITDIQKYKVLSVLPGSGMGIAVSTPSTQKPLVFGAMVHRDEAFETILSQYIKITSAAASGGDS
smiles,measurement,setting,value
CCC(=C(c1ccccc1)c1ccc(OCCN(C)Cc2cn(CCOCCOCCOCCOCCOCCNC(=O)CCC(NC(=O)c3ccc(N(C)Cc4cnc5nc(N)nc(N)c5n4)cc3)C(=O)O)nn2)cc1)c1ccccc1 (stereo not drawn) [MTX-PEG6-tamoxifen],Recurrence (x/4),[1],1 x/4
same,Recurrence (x/4),[2],2 x/4
same,Recurrence (x/4),[3],1 x/4
same,Recurrence (x/4),[4],1 x/4
same,Recurrence (x/4),[5]; [21],1 x/4
same,Recurrence (x/4),[5]; [22],1 x/4
same,Recurrence (x/4),[6],1 x/4
same,Recurrence (x/4),[7]; [21],4 x/4
same,Recurrence (x/4),[7]; [22],4 x/4
same,Recurrence (x/4),[8],1 x/4
same,Recurrence (x/4),[9],1 x/4
same,Recurrence (x/4),[10]; [21],1 x/4
same,Recurrence (x/4),[10]; [22],1 x/4
same,Recurrence (x/4),[11],1 x/4
same,Recurrence (x/4),[12],1 x/4
same,Recurrence (x/4),[13]; [21],2 x/4
same,Recurrence (x/4),[13]; [22],2 x/4
same,Recurrence (x/4),[14],3 x/4
same,Recurrence (x/4),[15],1 x/4
same,Recurrence (x/4),[16]; [21],1 x/4
same,Recurrence (x/4),[16]; [22],1 x/4
same,Recurrence (x/4),[17],1 x/4
same,Recurrence (x/4),[18],1 x/4
same,Recurrence (x/4),[19]; [21],4 x/4
same,Recurrence (x/4),[19]; [22],2 x/4
same,Recurrence (x/4),[20]; [21],3 x/4
same,Recurrence (x/4),[20]; [22],2 x/4
